From patent US9580390B2, “Indazole compounds as kinase inhibitors and method of treating cancer with same” (University Health Network, priority 2011, dated 2017)
pIC50: −log10 of the molar value. Where two headings read alike, the source gives them in different places.

Assays:
human PLK4 = target: T1, human PLK4 (Homo sapiens, UniProt O00444); assay: PLK4 inhibition assay (indirect ELISA); assay type: biochemical; conditions: 15 μM ATP
T1 construct: amino terminal GST fusion of residues 1-391 of human PLK4; made in house; host or cells: E. coli
T1 sequence (O00444 1-391): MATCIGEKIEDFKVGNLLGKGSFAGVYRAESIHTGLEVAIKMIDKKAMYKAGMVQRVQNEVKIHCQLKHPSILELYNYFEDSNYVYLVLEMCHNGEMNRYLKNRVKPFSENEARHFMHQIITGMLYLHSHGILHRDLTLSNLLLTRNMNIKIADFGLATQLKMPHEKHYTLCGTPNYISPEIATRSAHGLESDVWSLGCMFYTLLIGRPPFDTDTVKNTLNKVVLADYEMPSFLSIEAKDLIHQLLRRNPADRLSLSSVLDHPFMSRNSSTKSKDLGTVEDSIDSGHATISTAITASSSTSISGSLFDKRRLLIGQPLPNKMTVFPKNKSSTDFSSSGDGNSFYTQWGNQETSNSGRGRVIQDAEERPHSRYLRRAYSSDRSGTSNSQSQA
Procedure, shortened: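 Dephosphorylated GST-PLK4 (residues 1-391, E. coli; 4 nM) was preincubated 15 min with compound, then reacted 30 min with 15 μM ATP in HEPES pH 7.4, MgCl2, Brij 35 on MBP-coated plates. Phospho-MBP was detected by antibody/HRP ELISA at 450 nm; IC50 from 10-point titration by 4-parameter logistic fit, or single 10 μM % inhibition.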

TICs (Colon 12) = assay: Colon tumor-initiating cell growth inhibition (Alamar Blue); assay type: cell-based; conditions: 216 h, 9 days, read-out: Tumor Initiating Cell GI50 Range Colon 12
[1] = test system: colon cancer cells (HCT116); assay: Cancer cell line growth inhibition (SRB assay); assay type: cell-based; conditions: Homo sapiens, HCT-116, read-out: Cancer Cell Line GI50 Range HCT116
TICs (Ovarian 2393A) = assay: Ovarian tumor-initiating cell growth inhibition (Alamar Blue); assay type: cell-based; conditions: 144 h; ovarian TICs, 6 days, Alamar Blue; read-out: Tumor Initiating Cell GI50 Range Ovarain 2393A
[2] = test system: ovarian cancer cells (PA-1); assay: Cancer cell line growth inhibition (SRB assay); assay type: cell-based; conditions: read-out: Cancer Cell Line GI50 Range PA-1
Breast cancer cells = assay: Cancer cell line growth inhibition (SRB assay); assay type: cell-based; conditions: Homo sapiens; MDA-MB-468; read-out: Cancer Cell Line GI50 Range MDA-MB-468
human TTK = target: T2, human TTK (Homo sapiens, UniProt P33981); assay: TTK inhibition assay (indirect ELISA); assay type: biochemical; conditions: read-out: TTK IC50 Range
T2 construct: amino terminal GST fusion of full length human TTK; purchased Invitrogen
T2 sequence (P33981 1-857): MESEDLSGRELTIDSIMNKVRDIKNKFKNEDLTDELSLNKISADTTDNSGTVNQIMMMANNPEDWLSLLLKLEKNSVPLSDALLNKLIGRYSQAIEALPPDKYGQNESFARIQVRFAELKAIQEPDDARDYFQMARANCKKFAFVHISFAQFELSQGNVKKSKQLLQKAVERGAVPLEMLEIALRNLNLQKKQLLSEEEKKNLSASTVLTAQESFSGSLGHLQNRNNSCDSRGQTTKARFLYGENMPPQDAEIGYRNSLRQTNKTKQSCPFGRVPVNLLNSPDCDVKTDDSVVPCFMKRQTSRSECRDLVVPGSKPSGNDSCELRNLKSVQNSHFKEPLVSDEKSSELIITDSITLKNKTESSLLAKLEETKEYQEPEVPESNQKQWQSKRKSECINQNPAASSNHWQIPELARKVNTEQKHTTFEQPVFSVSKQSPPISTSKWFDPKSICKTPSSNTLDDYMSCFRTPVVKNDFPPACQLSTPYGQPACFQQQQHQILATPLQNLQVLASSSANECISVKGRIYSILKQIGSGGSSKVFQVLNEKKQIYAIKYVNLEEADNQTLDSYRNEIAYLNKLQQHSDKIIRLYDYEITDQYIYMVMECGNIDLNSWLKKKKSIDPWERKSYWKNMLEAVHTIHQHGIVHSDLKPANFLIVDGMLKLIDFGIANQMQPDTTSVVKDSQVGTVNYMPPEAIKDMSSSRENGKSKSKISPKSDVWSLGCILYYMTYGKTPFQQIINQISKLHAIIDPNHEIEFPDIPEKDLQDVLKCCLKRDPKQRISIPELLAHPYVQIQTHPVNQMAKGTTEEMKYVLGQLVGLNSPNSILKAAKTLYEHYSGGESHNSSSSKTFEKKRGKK

[3] = HCT116 colon cancer cells, SRB assay
[4] = PA-1 ovarian cancer cells, SRB assay

pIC50 (human PLK4)	GI50 (TICs (Colon 12); colon TICs, Alamar Blue) [nM]	GI50 [1, 3] [nM]	GI50 (TICs (Ovarian 2393A)) [nM]	GI50 [2, 4] [nM]	Structure (SMILES)	GI50 ([2]; Homo sapiens, PA-1) [nM]	GI50 (Breast cancer cells) [nM]	GI50 [1] [nM]	pIC50 (human TTK)	GI50 (TICs (Colon 12); Colon 12 TICs) [nM]
> 7.30	< 100	< 100	100 to 500	–	O=C(Nc1ccc2[nH]nc(-c3ccc(OC4CCOCC4)cc3)c2c1)C(c1ccsc1)N1CCCC1 (centres unmarked) [Example A29, 2-(pyrrolidin-1-yl)-N-(3-(4-((tetrahydro-2H-pyran-4-yl)oxy)phenyl)-1H-indazol-5-yl)-2-(thiophen-3-yl)acetamide]	–	–	–	–	–
> 7.30	< 100	< 100	100 to 500	< 100	CN1CCC(Oc2ccc(-c3n[nH]c4ccc(C(=O)NC(c5ccsc5)C5CCCC5)cc34)cc2)CC1 (centres unmarked) [Example A110, N-(cyclopentyl(thiophen-3-yl)methyl)-3-(4-((1-methylpiperidin-4-yl)oxy)phenyl)-1H-indazol-5-carboxamide]	–	–	–	–	–
> 7.30	100 to 500	< 100	< 100	< 100	O=CN1CCC(Oc2ccc(-c3n[nH]c4ccc(NC(=O)C(c5ccsc5)N5CCCC5)cc34)cc2)CC1 (centres unmarked) [Example A118, N-(3-(4-((1-formylpiperidin-4-yl)oxy)phenyl)-1H-indazol-5-yl)-2-(pyrrolidin-1-yl)-2-(thiophen-3-yl)acetamide]	–	–	–	–	–
> 7.30	< 100	< 100	100 to 500	100 to 500	CC[C@@H](NC(=O)c1ccc2[nH]nc(-c3ccc(OC4CCN(CCOC)CC4)cc3)c2c1)c1ccccc1Cl [Example A128, (R)-N-(1-(2-chlorophenyl)propyl)-3-(4-((1-(2-methoxyethyl)piperidin-4-yl)oxy)phenyl)-1H-indazole-5-carboxamide]	–	–	–	–	–
> 7.30	< 100	< 100	100 to 500	< 100	Cc1ccccc1C(C(=O)Nc1ccc2[nH]nc(-c3ccc(OC4CCN(C)CC4)cc3)c2c1)N1CCCC1 (centres unmarked) [Example A133, N-(3-(4-((1-methylpiperidin-4-yl)oxy)phenyl)-1H-indazol-5-yl)-2-(pyrrolidin-1-yl)-2-(o-tolyl)acetamide]	–	–	–	–	–
> 7.30	> 500	< 100	< 100	< 100	CN1CCC(Oc2ccc(-c3n[nH]c4ccc(C(=O)NC(c5ccccc5F)C5CC5)cc34)cc2)CC1 (centres unmarked) [Example A136, N-(cyclopropyl(2-fluorophenyl)methyl)-3-(4-((1-methylpiperidin-4-yl)oxy)phenyl)-1H-indazole-5-carboxamide]	–	–	–	–	–
> 7.30	> 500	< 100	100 to 500	100 to 500	CN1CCC(Oc2ccc(-c3n[nH]c4ccc(C(=O)N[C@H](CCO)c5ccccc5)cc34)cc2)CC1 [Example A137, (R)-N-(3-hydroxy-1-phenylpropyl)-3-(4-((1-methylpiperidin-4-yl)oxy)phenyl)-1H-indazole-5-carboxamide]	–	–	–	–	–
> 7.30	< 100	< 100	100 to 500	< 100	CN1CCC(Oc2ccc(-c3n[nH]c4ccc(NC(=O)C(c5ccccc5)C5CC5)cc34)cc2)CC1 (centres unmarked) [Example A138, 2-cyclopropyl-N-(3-(4-((1-methylpiperidin-4-yl)oxy)phenyl)-1H-indazol-5-yl)-2-phenylacetamide]	–	–	–	–	–
> 7.30	< 100	< 100	< 100	< 100	CN1CCC(Oc2ccc(-c3n[nH]c4ccc(C(=O)NC(c5ccccc5Cl)C5CC5)cc34)cc2)CC1 (centres unmarked) [Example A150, N-((2-chlorophenyl)(cyclopropyl)methyl)-3-(4-((1-methylpiperidin-4-yl)oxy)phenyl)-1H-indazole-5-carboxamide]	–	–	–	–	–
> 7.30	< 100	< 100	< 100	100 to 500	COCCN1CCC(Oc2ccc(-c3n[nH]c4ccc(C(=O)N[C@H](c5ccsc5)C5CC5)cc34)cc2)CC1 [Example A154, (S)-N-(cyclopropyl(thiophen-3-yl)methyl)-3-(4-((1-(2-methoxyethyl)piperidin-4-yl)oxy)phenyl)-1H-indazole-5-carboxamide]	–	–	–	–	–
> 7.30	< 100	< 100	< 100	< 100	CN1CCC(Oc2ccc(-c3n[nH]c4ccc(C(=O)N[C@@H](c5sccc5Cl)C5CC5)cc34)cc2)CC1 [Example A166, (R)-N-((3-chlorothiophen-2-yl)(cyclopropyl)methyl)-3-(4-((1-methylpiperidin-4-yl)oxy)phenyl)-1H-indazole-5-carboxamide]	–	–	–	–	–
> 7.30	–	–	–	–	O=C(NCC1(c2ccccc2)COC1)c1ccc2[nH]nc(-c3ccc(OC4CCN(C5COC5)CC4)cc3)c2c1 [Example A487, 3-(4-((1-(oxetan-3-yl)piperidin-4-yl)oxy)phenyl)-N-((3-phenyloxetan-3-yl)methyl)-1H-indazole-5-carboxamide]	> 500	> 500	> 500	> 7.00	–

Structure (SMILES)	pIC50 (human PLK4)	GI50 (TICs (Colon 12); colon TICs, Alamar Blue) [nM]	GI50 [1, 3] [nM]	GI50 (TICs (Ovarian 2393A)) [nM]	GI50 [2, 4] [nM]	GI50 ([2]; Homo sapiens, PA-1) [nM]	GI50 (Breast cancer cells) [nM]	GI50 [1] [nM]	pIC50 (human TTK)	GI50 (TICs (Colon 12); Colon 12 TICs) [nM]
CC(C)C[C@H](NC(=O)c1ccc2[nH]nc(-c3ccc(N4C5COCC4CC(O)C5)cc3)c2c1)c1ccccc1Cl (stereo partly drawn) [Example A424, N-((S)-1-(2-chlorophenyl)-3-methylbutyl)-3-(4-((1R,5S,7R)-7-hydroxy-3-oxa-9-azabicyclo[3.3.1]nonan-9-yl)phenyl)-1H-indazole-5-carboxamide]	> 7.30	–	–	–	–	< 100	< 100	< 100	> 7.00	–
CN1[C@@H]2CC[C@H]1C[C@@H](Oc1ccc(-c3n[nH]c4ccc(C(=O)NCC5(c6cccs6)CCOCC5)cc34)cc1)C2 [Example A445, 3-(4-(((1R,3R,5S)-8-methyl-8-azabicyclo[3.2.1]octan-3-yl)oxy)phenyl)-N-((4-(thiophen-2-yl)tetrahydro-2H-pyran-4-yl)methyl)-1H-indazole-5-carboxamide]	> 7.30	–	–	–	–	< 100	100 to 500	< 100	> 7.00	–
O=C(NCC1(c2ccccc2)CCOCC1)c1ccc2[nH]nc(-c3ccc(N4[C@@H]5CC[C@H]4C[C@@H](O)C5)cc3)c2c1 [Example A492, 3-(4-((1R,3R,5S)-3-hydroxy-8-azabicyclo[3.2.1]octan-8-yI)phenyl)-N-((4-phenyltetrahydro-2H-pyran-4-yl)methyl)-1H-indazole-5-carboxamide]	> 7.30	–	–	–	–	< 100	< 100	< 100	> 7.00	< 100
O=C(NCC1(c2ccccc2)CCOCC1)c1ccc2[nH]nc(-c3ccc(N4[C@@H]5COC[C@H]4C[C@@H](O)C5)cc3)c2c1 [Example A503, 3-(4-((1R,5S,7S)-7-hydroxy-3-oxa-9-azabicyclo[3.3.1]nonan-9-yl)phenyl)-N-((4-phenyltetrahydro-2H-pyran-4-yl)methyl)-1H-indazole-5-carboxamide]	> 7.30	–	–	–	–	< 100	100 to 500	< 100	> 7.00	–
